Source: patent US12221453B2, “Substituted pyrazolo[5′,1′:2,3]pyrimido[5,4-b][1,4]oxazines as TYK2 inhibitors” (TAKEDA PHARMACEUTICAL COMPANY LIMITED, priority 2018, dated 2025)

System: IL-12 induced STAT4 phosphorylation mediated by TYK2/JAK2
Test: IL-12 induced pSTAT4 in human PBMC
Assay type: cell-based
Settings: 1 hr compound, 1.7 ng/mL IL-12 for 30 minutes
Procedure, shortened: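 Thawed human PBMC were pre-incubated with compound for 1 hr at 37 °C (0.1% DMSO), then stimulated with 1.7 ng/mL IL-12 for 30 minutes. Phospho-STAT4 and total STAT4 were measured in cell lysates by MSD.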

IC50 | Structure (SMILES)
< 0.1 µM | O=C(NC1CCC1(F)F)c1cnn2c3c(c(Nc4cccn([C@H]5[C@@H]6COC[C@@H]65)c4=O)nc12)OCCN3 (stereo partly drawn) [Compound I-768]
< 0.1 µM | CNc1cc(Nc2cccn([C@H]3CCCC[C@H]3O)c2=O)nc2c(C(=O)N[C@@H]3CC[C@H]3F)cnn12 [Compound I-214]
< 0.1 µM | CNc1cc(Nc2cccn([C@H]3CC[C@H](OC)CC3)c2=O)nc2c(C(=O)N[C@H]3CC[C@@H]3F)cnn12 [Compound I-225]
< 0.1 µM | CNc1cc(Nc2cccn([C@@H]3CCC[C@@H]3O)c2=O)nc2c(C(=O)N[C@@H]3CCC3(F)F)cnn12 [Compound I-305]
< 0.1 µM | CC(C)n1cc(-c2nc3c(C(=O)NC4CC[C@H]4O)cnn3c3c2OCCN3)c2cccnc21 (stereo partly drawn) [Compound I-753]
< 0.1 µM | CNc1cc(Nc2cccn([C@H]3C[C@@H](OC)C3)c2=O)nc2c(C(=O)NC3CC[C@@H]3F)cnn12 (mixture of isomers) [Compound I-173]
< 0.1 µM | CNc1cc(Nc2cccn(-c3ccc(C)nc3)c2=O)nc2c(C(=O)N[C@H]3CCC3(F)F)cnn12 [Compound I-325]
< 0.1 µM | CNc1cc(Nc2cccn([C@H]3C[C@H](OC)C3)c2=O)nc2c(C(=O)NC3CCC3)cnn12 [Compound I-141]
< 0.1 µM | CNc1cc(-c2cn([C@@H]3COC[C@H]3O)c3ncccc23)nc2c(C(=O)N[C@@H]3CC[C@H]3OC)cnn12 [Compound I-629]
< 0.1 µM | CNc1cc(Nc2cccn(C3CCC[C@@](C)(OC)C3)c2=O)nc2c(C(=O)N[C@@H]3C[C@@H]3F)cnn12 (stereo partly drawn) [Compound I-130]
< 0.1 µM | CNc1cc(Nc2cccn([C@@H]3CCC[C@H](C#N)C3)c2=O)nc2c(C(=O)N[C@H]3CCC3(F)F)cnn12 [Compound I-328]
< 0.1 µM | CNc1cc(Nc2cccn([C@H]3C[C@H](OC)C3)c2=O)nc2c(C(=O)NC3CC[C@@H]3F)cnn12 (mixture of isomers) [Compound I-176]
< 0.1 µM | CNc1cc(Nc2cccn([C@H]3C[C@H](OC)C3)c2=O)nc2c(C(=O)N[C@H]3CCC3(F)F)cnn12 [Compound I-293]
< 0.1 µM | CNc1cc(Nc2cccn(C3CCOCC3)c2=O)nc2c(C(=O)N[C@H]3CC[C@]3(C)O)cnn12 [Compound I-349]
< 0.1 µM | CNc1cc(Nc2cccn([C@H]3[C@@H]4COC[C@@H]43)c2=O)nc2c(C(=O)N[C@@H]3CC[C@H]3OC)cnn12 [Compound I-262]
< 0.1 µM | CNc1cc(Nc2cccn([C@@H]3CCC[C@](C)(OC)C3)c2=O)nc2c(C(=O)NC3CC3)cnn12 [Compound I-124]
< 0.1 µM | CNc1cc(-c2cn([C@H]3C[C@@H](O)C3)c3ncccc23)nc2c(C(=O)NC3CC[C@@H]3F)cnn12 (stereo partly drawn) [Compound I-510]
< 0.1 µM | CNc1cc(-c2cn([C@H]3CC3(F)F)c3ncccc23)nc2c(C(=O)N[C@@H]3COC[C@@H]3O)cnn12 [Compound I-711]
< 0.1 µM | CNc1cc(-c2cnc3n([C@@H]4CCOC4)cccc2-3)nc2c(C(=O)N[C@H]3CC[C@@H]3OC)cnn12 [Compound I-1004]
< 0.1 µM | CNc1cc(Nc2cccn([C@H]3C[C@@H]3F)c2=O)nc2c(C(=O)N[C@@H]3CCC3(F)F)cnn12 [Compound I-279]
< 0.1 µM | CC(C)n1cc(-c2nc3c(C(=O)N[C@H]4CC[C@H]4O)cnn3c3c2OCCN3)c2cccnc21 [Compound I-754]
< 0.1 µM | CNc1cc(-c2cn([C@@H]3CCOC[C@@H]3OC)c3ncccc23)nc2c(C(=O)NC3CC[C@@H]3OC)cnn12 (stereo partly drawn) [Compound I-668]
< 0.1 µM | CC(C)n1cccc(Nc2nc3c(C(=O)N[C@H]4CCC4(F)F)cnn3c3c2OCCN3)c1=O [Compound I-766]
< 0.1 µM | CNc1cc(Nc2cccn([C@H]3C[C@@H](OC)C3)c2=O)nc2c(C(=O)NC3CCC3(F)F)cnn12 (stereo partly drawn) [Compound I-295]

IC50 | Structure (SMILES)
< 0.1 µM | CNc1cc(Nc2cccn(C3COC3)c2=O)nc2c(C(=O)N[C@@H]3CCC3(F)F)cnn12 [Compound I-282]
< 0.1 µM | O=C(NC1CC[C@@H]1F)c1cnn2c3c(c(-c4cn(C5COC5)c5ncccc45)nc12)OCCN3 (stereo partly drawn) [Compound I-774]
< 0.1 µM | CNc1cc(Nc2cccn([C@@H]3CCCOC3)c2=O)nc2c(C(=O)N[C@@H]3CCC3(F)F)cnn12 [Compound I-317]
< 0.1 µM | CNc1cc(-c2cnc3n([C@@H]4COC[C@H]4O)cccc2-3)nc2c(C(=O)NC3CCC3(F)F)cnn12 (stereo partly drawn) [Compound I-901]
< 0.1 µM | CNc1cc(-c2cn([C@@H]3CC3(F)F)c3ncccc23)nc2c(C(=O)N[C@H]3CC[C@H]3O)cnn12 [Compound I-549]
< 0.1 µM | CNc1cc(-c2cn([C@H]3COC[C@@H]3O)c3ncccc23)nc2c(C(=O)NC3CCC3(F)F)cnn12 (stereo partly drawn) [Compound I-695]
< 0.1 µM | CNc1cc(Nc2cccn([C@H]3CC[C@H]3O)c2=O)nc2c(C(=O)NC3CC[C@@H]3F)cnn12 (stereo partly drawn) [Compound I-167]
< 0.1 µM | CNc1cc(-c2cn([C@H]3CCOC[C@H]3OC)c3ncccc23)nc2c(C(=O)N[C@H]3CC[C@@H]3F)cnn12 [Compound I-796]
< 0.1 µM | CNc1cc(-c2cnc3n([C@H]4CCOC[C@@H]4O)cccc2-3)nc2c(C(=O)NC3CC3)cnn12 [Compound I-819]
< 0.1 µM | CNc1cc(-c2cn([C@@H]3CCOC[C@@H]3OC)c3ncccc23)nc2c(C(=O)N[C@H]3CC[C@@H]3OC)cnn12 [Compound I-669]
< 0.1 µM | CNc1cc(-c2cnc3n([C@H]4COC[C@@H]4OC)cccc2-3)nc2c(C(=O)N[C@H]3CC[C@@H]3F)cnn12 [Compound I-833]
< 0.1 µM | CNc1cc(Nc2cccn(-c3ncccc3F)c2=O)nc2c(C(=O)NC3CC[C@@]3(C)OC)cnn12 (stereo partly drawn) [Compound I-414]
< 0.1 µM | CNc1cc(-c2cn([C@H]3[C@@H]4COC[C@@H]43)c3ncccc23)nc2c(C(=O)N[C@H]3CC[C@@H]3O)cnn12 [Compound I-915]
< 0.1 µM | CNc1cc(-c2cnc3n([C@@H]4COC[C@H]4O)cccc2-3)nc2c(C(=O)NC3CC3)cnn12 [Compound I-817]
< 0.1 µM | CNc1cc(Nc2cccn([C@H]3CCC[C@H]3O)c2=O)nc2c(C(=O)NC3CC[C@]3(C)OC)cnn12 (stereo partly drawn) [Compound I-390]
< 0.1 µM | CNc1cc(Nc2cccn([C@H]3CCCOC3)c2=O)nc2c(C(=O)NC3CCC3(F)F)cnn12 (stereo partly drawn) [Compound I-312]
< 0.1 µM | CNc1cc(Nc2cccn(C3CCOCC3)c2=O)nc2c(C(=O)N[C@H]3CC[C@]3(C)OC)cnn12 [Compound I-407]
< 0.1 µM | CNc1cc(-c2cn(C3COC3)c3ncccc23)nc2c(C(=O)N[C@H]3CC[C@@H]3F)cnn12 [Compound I-508]
< 0.1 µM | CNc1cc(-c2cn(C3COC3)c3ncccc23)nc2c(C(=O)N[C@H]3CC[C@@H]3O)cnn12 [Compound I-558]
< 0.1 µM | CNc1cc(-c2cn([C@@H]3CCOC[C@H]3O)c3ncccc23)nc2c(C(=O)N[C@H]3CC[C@@H]3F)cnn12 [Compound I-538]
< 0.1 µM | CNc1cc(Nc2cccn([C@H]3CCC[C@H]3O)c2=O)nc2c(C(=O)N[C@H]3CC[C@]3(C)OC)cnn12 [Compound I-391]
< 0.1 µM | CNc1cc(-c2cn(CC(=O)N(C)C)c3ncccc23)nc2c(C(=O)N[C@H]3CC[C@@H]3OC)cnn12 [Compound I-921]
< 0.1 µM | CNc1cc(Nc2cccn([C@H]3C[C@H](F)C3)c2=O)nc2c(C(=O)N[C@H]3CC[C@H](O)C3)cnn12 [Compound I-436]
< 0.1 µM | CNc1cc(-c2cn([C@H]3CCN(C)C3)c3ncccc23)nc2c(C(=O)NC3CC[C@@H]3OC)cnn12 (stereo partly drawn) [Compound I-618]
